Results reported in the supplement of paper PMC8967900.

Key:
Test in all cases: selective drug sensitivity score (sDSS, relative to normal bone marrow) (sDSS (score)); higher = more potent and effective on the cell line relative to normal bone marrow cells
Conditions in all cases: 72 h
CCRF-HSB2 = test system: CCRF-HSB2
CCRF-CEM = test system: CCRF-CEM
RPMI-8402 = test system: RPMI-8402
KASUMI-10 = test system: KASUMI-10
PF-382 = test system: PF-382
HAL-01 = test system: HAL-01
MHH-CALL-2 = test system: MHH-CALL-2
REH = test system: REH
MN-60 = test system: MN-60
NALM-16 = test system: NALM-16
COG-LL-402h = test system: COG-LL-402h
RCH-ACV = test system: RCH-ACV
MOLT-16 = test system: MOLT-16
MHH-CALL-3 = test system: MHH-CALL-3
COG-LL-319h = test system: COG-LL-319h
KASUMI-9 = test system: KASUMI-9
P30-OHKUBO = test system: P30-OHKUBO
SUP-B15 = test system: SUP-B15
380 = test system: 380
COG-LL-394h = test system: COG-LL-394h
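Also: ALL cell lines in 384-well plates, five doses spanning 10,000-fold, each plate scaled between vehicle and 100 µmol/L benzalkonium chloride controls, sDSS an adapted area-under-curve metric.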

Row | Structure (SMILES) | selective drug sensitivity score (CCRF-HSB2) | selective drug sensitivity score (CCRF-CEM) | selective drug sensitivity score (RPMI-8402) | selective drug sensitivity score (KASUMI-10) | selective drug sensitivity score (PF-382) | selective drug sensitivity score (HAL-01) | selective drug sensitivity score (MHH-CALL-2) | selective drug sensitivity score (REH) | selective drug sensitivity score (MN-60) | selective drug sensitivity score (NALM-16) | selective drug sensitivity score (COG-LL-402h) | selective drug sensitivity score (RCH-ACV) | selective drug sensitivity score (MOLT-16) | selective drug sensitivity score (MHH-CALL-3) | selective drug sensitivity score (COG-LL-319h) | selective drug sensitivity score (KASUMI-9) | selective drug sensitivity score (P30-OHKUBO) | selective drug sensitivity score (SUP-B15) | selective drug sensitivity score 380 | selective drug sensitivity score (COG-LL-394h)
1 | CC1=C(/C=C/C(C)=C/C=C/C(C)=C/C(=O)O)C(C)(C)CCC1 [Tretinoin] (top concentration 10000 nM) | -2.4 | -2.3 | -2.4 | -1.8 | -2.4 | 1.2 | -1.7 | -1.8 | -2.4 | -2.4 | -2.4 | -2.4 | -2.4 | -1.2 | -2.4 | 3.4 | -2.4 | -2.4 | 1.7 | -2.4
2 | COC(=O)c1ccc2c(c1)[nH]c1ncnc(NCCCN3CCCCC3)c12 [UM729] (top concentration 10000 nM) | 2.84 | 3.84 | 2.34 | 2.74 | 1.24 | -0.06 | -0.06 | 0.24 | 1.04 | 0.44 | 6.34 | 3.24 | 0.94 | 0.54 | -0.06 | 2.44 | 1.44 | 2.24 | 5.74 | 4.34
3 | COc1cc2c(NC3CCN(C(C)C)CC3)nc(N3CCC(F)(F)CC3)nc2cc1OCCCN1CCCC1 [UNC0642] (top concentration 10000 nM) | -0.54 | -0.54 | -0.74 | -1.64 | -2.14 | -3.54 | 0.96 | -0.14 | -3.74 | -3.74 | 2.66 | 2.56 | -2.94 | -1.64 | -1.44 | 0.76 | 2.06 | 3.36 | 0.86 | 2.76
4 | O=C(c1ccc(C(=O)N2CCC(N3CCCC3)CC2)c(Nc2ccccc2)c1)N1CCC(N2CCCC2)CC1 [UNC1215] (top concentration 10000 nM) | 0 | 0 | 0 | 0 | 0 | 0 | 0 | 0.5 | 0 | 0 | 0 | 0 | 0 | 0 | 0 | 0 | 0 | 0 | 0 | 0
5 | CCCC(CCC)C(=O)O [Valproic_acid] (top concentration 1000000 nM) | 0 | 0 | 0 | 0 | 0 | 0 | 0 | 0 | 0 | 0 | 0 | 0 | 0 | 0 | 0 | 0 | 0 | 0 | 0 | 0
